Experimental data: US6489304B2, “Hyperstructure-forming carriers” (Hybridon, Inc., priority 1997, dated 2002)

Key:
[1] = Tissue distribution of radioactivity after i.v. bolus administration of radiolabeled oligonucleotides; type: in vivo; conditions: rats
Description: (§1) To carry out pharmacokinetic studies, [^35S]-labeled PS-oligonucleotides were synthesized using phosphoramidite chemistry; the intermediate phosphite linkage was oxidized with [^35S8] to incorporate [^35S]. (Agrawal, et al., Synthetic Methods for the Radioisotopic Labeling of Oligonucleotides, in: Antisense Oligonucleotide from Technology to Therapy (Schlingensiepen, ed.) Blackwell, Berlin, pp. 60-77 (1996)). [^35S] was incorporated at the fifth (oligonucleotide HYB0411) or fourth (oligonucleotide HYB0412 and HYB0413) internucleotide linkage.
(§2) A dose of 10 mg/kg of [^35S]-labeled PS-oligonucleotide was administered intravenously (i.v.) to rats (Wistar rats from Charles River, Wilmington, Mass.). Following administration, plasma was collected after 5, 15 and 30 minutes and after 1, 3, 6, 12, 24 and 48 hours. Radioactivity levels were measured to monitor plasma clearance at each time point. Following administration of PS-oligonucleotide, animals (3 rats/group) were sacrificed at 12, 24 and 48 hours. The following tissues were removed and homogenized: muscle, lung, liver, kidney, and spleen. Radioactive levels were measured, to monitor tissue distribution of each of the oligonucleotides. To follow the excretion of PS-oligonucleotides, urine and feces were collected using metabolism cages at 0-3, 3-6, 6-12, 12-24 and 24-48 hour intervals and radioactivity levels were measured using the methods previously reported (Zhang, et al., Biochem. Pharmacol., 49: 929-939 (1995)).
The oligonucleotide-equivalent concentrations of radioactivity in tissues after i.v. bolus administration of radiolabeled oligonucleotides to rats are shown in FIGS. 4-8. […] Significant differences in distribution pattern were found among the three oligonucleotides. […] Oligonucleotide HYB0411 had the highest kidney concentration: 40% higher than that of Oligonucleotides HYB0412 and HYB0413.

[2] = Cumulative urinary and fecal excretion of radioactivity over 48 hours; type: in vivo; conditions: rats, 10 mg/kg i.v., rank among the three oligonucleotides
Protocol: as §2
FIGS. 9 and 10 show the cumulative excretion of urinary and fecal radioactivity over 48 hours following administration of radiolabeled oligonucleotides. Urinary excretion represented the major pathway of elimination. […] Oligonucleotide HYB0411 had the lowest urinary excretion rate and Oligonucleotide HYB0413 had the highest urinary excretion rate. Fecal excretion was a minor pathway of elimination (FIG. 11); Oligonucleotide HYB0413 had the highest fecal excretion rate.

[3] = Plasma pharmacokinetics of [35S]-labeled PS-oligonucleotides after i.v. bolus administration; type: in vivo; conditions: rats, 10 mg/kg i.v.; for maximum plasma concentration (Cmax): radioactivity, compared with Oligonucleotide HYB0413
Description: as §1, §2
FIG. 3 illustrates the plasma concentration-time courses of oligonucleotide equivalents after i.v. bolus administration of radiolabeled oligonucleotides into rats, based on quantification of radioactivity. As shown in previous studies (Agrawal, et al., Clin. Pharm. 28:7-16 (1995); Zhang, et al., Biochem. Pharmacol., 49: 929-939 (1995)), PS-oligonucleotides rapidly clear from the plasma. […] No significant difference in plasma elimination half-life (t½β) was observed.

[4] = Chemical forms of radioactivity in tissues by polyacrylamide gel electrophoresis (in vivo stability); conditions: rats

Substance	lung concentration ([1]; 10 mg/kg i.v., compared with HYB0411 and HYB0412)	tissue concentrations in the tissues examined (in general) ([1]; 10 mg/kg i.v., comparison among the three oligonucleotides)	bone marrow concentration ([1]; 12 hours after dosing, compared with HYB0411 and HYB0412, data not shown)	fecal excretion rate [2]	urinary excretion rate [2]	maximum plasma concentration (Cmax) [3]	distribution half-life (t½α) ([3]; compared with Oligonucleotides HYB0412 and HYB0413)	liver concentration, higher than Oligonucleotide HYB0413 ([1]; 10 mg/kg i.v.)	kidney concentration, higher than that of Oligonucleotides HYB0412 and HYB0413 ([1]; 10 mg/kg i.v., highest kidney concentration)	degradation in the kidney ([4]; kidney tissue, PAGE after 5'-post labeling)	in vivo stability ([4]; b74 compared with Oligonucleotide HYB0411, b75 compared with control oligonucleotide)	absorption ([4]; compared with Oligonucleotide HYB0411)
5′-CTCTCGCACCCATCTCTCTCCTTCT-3′ [Oligonucleotide HYB0413, reference compound]	significantly higher concentrations	different from those of Oligonucleotide HYB0411 and Oligonucleotide HYB0412	higher concentrations	highest	highest							
5′-CTCTCGCACCCATCTCTCTCCTTCTGGGG-3′ (all phosphorothioate, sugars by position and methylation of C not given here) [Oligonucleotide HYB0411]					lowest	significantly higher	shorter	approximately 50%	40%	time-dependent degradation		
5′-CTCTCGCACCCATCTCTCTCCTTCTGTGT-3′ [Oligonucleotide HYB0412]						significantly higher		approximately 50%			superior in vivo stability	greater absorption
